Assays:
[1] = test system: LAMP1/2, TFEB and cathepsin D; test: Expression of LAMP1/2, TFEB and cathepsin D in hypoxia-exposed primary trophoblast cells; assay type: cell-based, human
Protocol: FIG. 15. To investigate the underlying mechanisms, it was evaluated whether Trehalose can enhance the activities of autophagy-lysosomal degradation pathway, the machinery responsible for clearance of protein aggregates. To this end, the signaling molecules of this machinery such as LAMP1/2, TFEB and cathepsin D were examined in primary trophoblast cells in response to hypoxia stimulation with and without Trehalose treatment.

[2] = test system: pregnant IL10-/- mice; test: Mouse model of PE: severe PE serum in pregnant IL10-/- mice; assay type: in vivo; conditions: for preeclampsia-like features (hypertension, proteinuria, growth restriction, kidney injury): PE serum at gd10 in IL-10-/- mice, 2 g/kg i.p. at gd9, or gd11 and gd14, or gd9, gd11 and gd14, readout gd17
Protocol: (§1) FIGS. 16 and 17. Based on the results in the cellular model of PE, the effect of Trehalose treatment in an animal model of PE was evaluated next in an established mouse model of PE by a single administration of severe PE serum in pregnant IL10^−/− mice at gd10^22. Using this model, mice were injected intraperitoneally with vehicle, Trehalose (2 g/kg), maltose, or D-glucose (2 g/kg) at gestational day (gd) 9 (a single dose before serum injection), at gd11 and gd14 (two doses after serum injection), or at gd9, gd11 and gd14 (one dose before and two doses after serum injection) (FIG. 16). At gd17, urine was collected, blood pressure was measured, and fetal weight was recorded (FIG. 17A-D). Kidney was fixed and processed for H&E staining for glomerular endotheliosis (FIG. 17E). As reported previously, administration of severe PE sera, not normal pregnancy sera, at gd10 recapitulated a full spectrum of PE-like manifestations in IL-10^−/− mice, including hypertension, proteinuria, renal injury and fetal growth restriction (FIG. 17).

[3] = test system: components of autophagy-lysosomal machinery; test: Western blot of autophagy markers in hypoxia-exposed primary trophoblast cells; assay type: cell-based, human; conditions: trehalose 50 mM, 1% O2, 3 days
Protocol: Primary trophoblast cells were treated with vehicle or trehalose (50 mM), exposed to low oxygen tension (1% O2) or normoxia, and fixed at 3 days. Cells were harvested and lysed in RIPA lysis buffer containing protease inhibitors cocktail (Sigma). Proteins were separated by 4-12% SDS-PAGE and transferred into PVDF membrane. After blocking with 5% nonfat milk in PBS-tween (PBS-T) buffer for 30 min, the transferred membrane was incubated overnight in indicated primary antibodies, diluted in 3% or 5% BSA in PBS-T buffer, at 4° C. The membrane was washed three times, incubated for 1 h at room temperature with HRP-conjugated goat anti-rabbit/mouse IgG (Cell signaling), and then treated with enhanced chemiluminescent substrate (Thermofisher) and exposed on film.

[4] = test system: pS71-Pin1; test: pS71-Pin1 immunostaining in nuclei of hypoxia-exposed primary trophoblast cells; assay type: cell-based, human; conditions: trehalose 50 mM, 1% O2, 3 days
Protocol: (§2) Human primary trophoblast cells (ScienCell Research Laboratories) were plated on glass coverslips and cultured in trophoblast medium supplemented with 5% fetal bovine serum, 1% trophoblast growth supplement and 1% penicillin/streptomycin (ScienCell Research Laboratories) in a humidified atmosphere with 5% CO2 at 37° C. Cells were washed three times with Dulbecco's phosphate-buffered saline and cultured in serum-free trophoblast medium prior to exposure to low oxygen tension (1% O2) or normoxia (20% O2) for 3 days. Cells were fixed with 4% formaldehyde in PBS for 15 min, permeabilized and then stained with ProteoStat® dye.
(§3) Primary trophoblast cells were treated with vehicle or trehalose (50 mM), exposed to low oxygen tension (1% O2) or normoxia, and fixed at 3 days. After permeabilized and blocked in PBS solution containing 1% Triton-X, 3% BSA and normal donkey serum for 30 min, cells were immunostained for pS71-Pin1 with rabbit anti-pS71-Pin1 antibody and then with Alexa Fluor 488 donkey anti-rabbit secondary antibody. Cells were then mounted in anti-quench mounting medium with DAPI.

[5] = test system: protein aggregates in primary trophoblast cells; test: ProteoStat staining of protein aggregates in hypoxia-exposed primary trophoblast cells; assay type: cell-based, human; conditions: 1% O2, 3 days
Protocol: Human primary trophoblast cells (ScienCell Research Laboratories) were plated on glass coverslips and cultured in trophoblast medium supplemented with 5% fetal bovine serum, 1% trophoblast growth supplement and 1% penicillin/streptomycin (ScienCell Research Laboratories) in a humidified atmosphere with 5% CO2 at 37° C. Cells were washed three times with Dulbecco's phosphate-buffered saline and cultured in serum-free trophoblast medium prior to exposure to low oxygen tension (1% O2) or normoxia (20% O2) for 3 days. Cells were fixed with 4% formaldehyde in PBS for 15 min, permeabilized and then stained with ProteoStat® dye. […] FIG. 14. The effect of Trehalose on protein aggregation was examined in primary trophoblast cells in response to hypoxia, a useful cellular model of PE. Primary trophoblast cells were cultured under normoxic and hypoxic (1% O2) culture conditions for 3 days, treated with vehicle, Trehalose, maltose, sucrose or D-glucose and then fixed for staining or lysed for Western blotting. ProteoStat, a dye with high affinity to aggregated proteins, was used to detect protein aggregates in treated and untreated cells.

[6] = test system: TCL-1 cells; test: Autophagy-lysosomal machinery and protein aggregates in trophoblast cell line TCL-1 under hypoxia; assay type: cell-based, human
[7] = FDA; safety studies in mice, rats, and rabbits including in pregnancy; cited from earlier work
[8] = test system: placenta of pre-eclamptic mice; test: Placentas of pre-eclamptic mice: ProteoStat signal and cathepsin D expression; assay type: in vivo, mouse; conditions: all dose regimens
Protocol: as §1
FIG. 18. Furthermore, the molecular events that underlie effects of Trehalose in pre-eclamptic mice were interrogated. The placentas from Trehalose-treated mice and controls were assessed for the abundance of aggregated proteins and expression of molecules in autophagy-lysosomal pathway.

[9] = test system: Pin1; test: Pin1 immunostaining in nuclei of hypoxia-exposed primary trophoblast cells; assay type: cell-based, human; conditions: trehalose 50 mM, 1% O2, 3 days
Protocol: as §2
as §3, with “[…]” for “pS71-Pin1”, “mouse anti-Pin1” for “rabbit anti-pS71-Pin1”, “anti-mouse” for “anti-rabbit”

[10] = test system: cis-P-tau; test: cis-P-tau immunostaining in hypoxia-exposed primary trophoblast cells; assay type: cell-based, human; conditions: trehalose 50 mM, 1% O2, 3 days
Protocol: as §2
as §3, with “cis-P-tau” for “pS71-Pin1 with rabbit anti-pS71-Pin1 antibody”, “and” for “and then with Alexa Fluor 488 donkey anti-rabbit secondary antibody. Cells were then”

Row | SMILES | hypoxia-induced downregulation of LAMP1/2, TFEB and cathepsin D [1] | preeclampsia-like features (hypertension, proteinuria, growth restriction, kidney injury) [2] | hypoxia-induced downregulation of components of autophagy-lysosomal machinery (Western blot) [3] | hypoxia-induced upregulation of nuclear pS71-Pin1 expression [4] | hypoxia-induced accumulation of protein aggregates (ProteoStat signal) [5] | hypoxia-induced accumulation of protein aggregates (ProteoStat signal) ([5]; listed as trehalose) | autophagy-lysosomal machinery and aggregate clearance under hypoxia [6] | safety status [7] | effect in mice administered normal pregnancy sera ([2]; normal pregnancy serum, IL-10-/- mice, 2 g/kg i.p.) | expression of cathepsin D in placenta [8] | protein aggregates in placenta (ProteoStat signal) ([8]; labyrinth, junctional zone and decidua) | hypoxia-induced downregulation of nuclear Pin1 expression [9] | hypoxia-induced upregulation of cis-P-tau [10]
1 | OC[C@H]1O[C@H](O[C@H]2[C@H](O)[C@@H](O)C(O)O[C@@H]2CO)[C@H](O)[C@@H](O)[C@@H]1O (mixture of isomers) [maltose, reference compound] | not easily observed | failed to rescue PE-like features |  |  |  |  |  |  |  |  |  |  | 
2 | O=C[C@H](O)[C@@H](O)[C@H](O)[C@H](O)CO [D-glucose, reference compound] | not easily observed | failed to rescue PE-like features |  |  |  |  |  |  |  |  |  |  | 
3 | OC[C@H]1O[C@H](O[C@H]2O[C@H](CO)[C@@H](O)[C@H](O)[C@H]2O)[C@H](O)[C@@H](O)[C@@H]1O [Trehalose] | significantly rescued hypoxia-induced downregulation of these molecules | significantly reversed preeclampsia-like features | blocked hypoxia-induced downregulation of these proteins | inhibited hypoxia-induced upregulation of nuclear pS71-Pin1 expression | significantly rescued hypoxia-induced accumulation of protein aggregates | inhibits protein aggregation | restores autophagy machinery | generally regarded as safe | did not have obvious effect | rescued the expression of cathepsin D | significantly decreased protein aggregates | blocked hypoxia-induced downregulation of nuclear Pin expression | blocked hypoxia-induced upregulation of cis-P-tau

From US11844808B2, “Methods and compositions for treating pre-eclampsia” (Women & Infants Hospital of Rhode Island, priority 2018, dated 2023)
